The values below come from ChEMBL document CHEMBL1136281, “Design and synthesis of novel chrysene-linked pyrrolo[2,1-c][1,4]-benzodiazepine hybrids as potential DNA-binding agents” (Bioorg Med Chem Lett, 2003).

Broadly, the IC50 is the midpoint of a concentration-inhibition curve.

One assay has as its system MCF7. The assay can be described thus: In vitro primary anticancer activity was determined in MCF-7 cell line (breast) at the concentration of […]. In kind it is functional, Homo sapiens.
In the next assay the test system is SF-268. The experiment in a line: In vitro primary anticancer activity was determined in SF-268 cell line (CNS) at the concentration of […]. In kind it is functional, Homo sapiens.
In another assay the test system is NCI-H460. The assay can be described thus: In vitro primary anticancer activity was determined in NCI-H460 cell line (Lung) at the concentration of […]. In kind it is functional, Homo sapiens.
A further assay concerns NCI-H226. The assay can be described thus: Anticancer activity against one non-small cell lung cancer (NCI-H226 cell line). Conditions: Homo sapiens, read-out: LC50 (the source's name). In kind it is functional.
The subject of a further assay is A498. The experiment in a line: Anticancer activity against one renal cancer (A498 cell line). In kind it is functional. The settings on record: Homo sapiens, read-out: LC50 (the source's name).
In the next assay the test system is UACC-62. The assay can be described thus: Anticancer activity against one melanoma cancer (UACC-62 cell line). In kind it is functional. Conditions: Homo sapiens, read-out: LC50 (the source's name).
A further assay relates to PC-6. The assay can be described thus: In vitro cytotoxicity was evaluated in PC6 cell line. In kind it is functional, cell-based. The settings on record: Homo sapiens.

The structures appear in SMILES notation.

`COc1cc2c(cc1OCCCC(=O)Nc1cc3c4ccccc4ccc3c3ccccc13)N=C[C@@H]1CCCN1C2=O`: the Growth is on record as 56% in the assay on MCF7, 121% with SF-268 and 105% with NCI-H460.

For `COc1cc2c(cc1OCCCCC(=O)Nc1cc3c4ccccc4ccc3c3ccccc13)N=C[C@@H]1CCCN1C2=O`, the results for the Growth in the assay with MCF7, in the assay with SF-268 and in the assay with NCI-H460 were 1%, 12% and 0%, respectively. Besides, the CC50 in the assay on NCI-H226 worked out at 4.5 µM; in the assay on A498, 6.29 µM; with UACC-62 it was 4.07 µM.

Turning to `COc1cc2c(cc1O)N=C[C@@H]1CCCN1C2=O`, in the assay with PC-6, the IC50 was 0.33 µM.
